In the C3SDB collision cross section collection:
“And” between values parts separate entries of the source, which are not always exact repeats. Equal values may be shown once.

Conditions: instrument: DT, single field, calibrated with ESI Low Concentration Tuning Mix (Agilent)

SMILES: CC(O)(CC(=O)O)CC(=O)O [3-HYDROXYMETHYLGLUTARATE]
- collision cross section (N2) ([M+Na]+): 135.9 Å²
- collision cross section (N2) ([M-H]-): 126.5 Å²

SMILES: COc1cc(C(O)C(=O)O)ccc1O (centres undefined) [3-METHOXY-4-HYDROXYMANDELATE]
- collision cross section (N2) ([M-H]-): 143.5 Å²

SMILES: Cn1cnc(N)c2ncnc1-2 [3-METHYLADENINE]
- collision cross section (N2) ([M+H]+): 126.3 Å²

SMILES: Cn1cncc1CCN [3-METHYLHISTAMINE]
- collision cross section (N2) ([M+H]+): 123.8 Å²

SMILES: O=C(O)/C=C/c1ccc(O)cc1 [4-COUMARATE]
- collision cross section (N2) ([M-H]-): 131.1 Å²

SMILES: O=C(O)Cc1cnc[nH]1 [4-IMIDAZOLEACETATE]
- collision cross section (N2) ([M+H]+): 123.9 Å²

SMILES: Cc1ncc(CO)c(C(=O)O)c1O [4-PYRIDOXATE]
- collision cross section (N2) ([M+H]+): 135.5 Å²
- collision cross section (N2) ([M+K]+): 147.4 Å²
- collision cross section (N2) ([M+Na]+): 150.2 Å²
- collision cross section (N2) ([M-H]-): 130.6 Å²

SMILES: O=C(O)Cc1c[nH]c2ccc(O)cc12 [5-HYDROXYINDOLEACETATE]
- collision cross section (N2) ([M+H]+): 140.9 Å²
- collision cross section (N2) ([M+Na]+): 148.4 Å²
- collision cross section (N2) ([M-H]-): 137.1 Å²

SMILES: NC[C@H](O)CC[C@H](N)C(=O)O [5-HYDROXYLYSINE]
- collision cross section (N2) ([M+H]+): 134.9 Å²
- collision cross section (N2) ([M+Na]+): 137.5 Å²
- collision cross section (N2) ([M-H]-): 134 Å²

SMILES: Cc1cnc(=O)[nH]c1N [5-METHYLCYTOSINE]
- collision cross section (N2) ([M+H]+): 121 Å² and 125.4 Å²
- collision cross section (N2) ([M+Na]+): 135.5 Å²

SMILES: Nc1ncnc2c1ncn2[C@@H]1O[C@H](COP(=O)(O)O)[C@@H](O)[C@H]1O [ADENOSINE MONOPHOSPHATE]
- collision cross section (N2) ([M+H]+): 171.4 Å²
- collision cross section (N2) ([M+Na]+): 177 Å²

SMILES: Nc1ncnc2c1ncn2[C@@H]1O[C@H](COP(=O)(O)OP(=O)(O)OP(=O)(O)O)[C@@H](O)[C@H]1O [ADENOSINE TRIPHOSPHATE]
- collision cross section (N2) ([M+H]+): 196.6 Å² and 196.9 Å²
- collision cross section (N2) ([M+Na-2H]-): 193.5 Å²
- collision cross section (N2) ([M+Na]+): 204 Å² and 204.2 Å²
- collision cross section (N2) ([M-H]-): 188.2 Å² and 188.3 Å²

SMILES: Nc1ncnc2c1ncn2[C@@H]1O[C@H](COP(=O)(O)O)[C@@H](O)[C@H]1O [ADENOSINE-MONOPHOSPHATE]
- collision cross section (N2) ([M+Na-2H]-): 179.5 Å²
- collision cross section (N2) ([M-H]-): 173.1 Å²

SMILES: OC[C@H]1O[C@H](O)[C@H](O)[C@@H](O)[C@@H]1O [ALPHA-D-GLUCOSE]
- collision cross section (N2) ([M+Na]+): 146.6 Å²

SMILES: OC1OC[C@H](O)[C@H](O)[C@H]1O (some centres undefined) [ARABINOSE]
- collision cross section (N2) ([M+Na]+): 134.6 Å²

SMILES: O=C1O[C@H]([C@@H](O)CO)C(O)=C1O [ASCORBATE]
- collision cross section (N2) ([M+Na]+): 141.6 Å²
- collision cross section (N2) ([M-H]-): 127.7 Å²

SMILES: N[C@@H](CC(=O)O)C(=O)O [ASPARTATE]
- collision cross section (N2) ([M-H]-): 118.6 Å² and 118.7 Å²

SMILES: O=P(O)(O)OC(CO)CO [BETA-GLYCEROPHOSPHATE]
- collision cross section (N2) ([M+Na-2H]-): 147.2 Å²
- collision cross section (N2) ([M+Na]+): 140.5 Å²
- collision cross section (N2) ([M-H]-): 126.3 Å²

SMILES: CCCCC(CC)COC(=O)c1ccccc1C(=O)OCC(CC)CCCC (centres undefined) [BIS(2-ETHYLHEXYL)PHTHALATE]
- collision cross section (N2) ([M+H2O-H]-): 203 Å²
- collision cross section (N2) ([M+H]+): 212.2 Å²

SMILES: NCCOP(=O)(O)OP(=O)(O)OC[C@H]1O[C@@H](n2ccc(N)nc2=O)[C@H](O)[C@@H]1O [CDP-ETHANOLAMINE]
- collision cross section (N2) ([M+Na-2H]-): 186.1 Å²
- collision cross section (N2) ([M-H]-): 188.2 Å²

SMILES: C[C@H](CCC(=O)O)[C@H]1CC[C@H]2[C@@H]3[C@H](O)C[C@@H]4C[C@H](O)CC[C@]4(C)[C@H]3C[C@H](O)[C@]12C [CHOLATE]
- collision cross section (N2) ([M+Na]+): 197.5 Å²
- collision cross section (N2) ([M-H]-): 203.1 Å²

SMILES: CCCCCCCCCCCCCCCC(=O)O[C@H]1CC[C@@]2(C)C(=CC[C@H]3[C@@H]4CC[C@H]([C@H](C)CCCC(C)C)[C@@]4(C)CC[C@@H]32)C1 [CHOLESTERYL PALMITATE]
- collision cross section (N2) ([M+Na]+): 286.3 Å²

SMILES: C[N+](C)(C)CCOP(=O)([O-])OP(=O)(O)OC[C@H]1O[C@@H](n2ccc(N)nc2=O)[C@H](O)[C@@H]1O [CITICOLINE]
- collision cross section (N2) ([M+H]+): 198.3 Å²
- collision cross section (N2) ([M+Na-2H]-): 210.2 Å²
- collision cross section (N2) ([M+Na]+): 207.8 Å²
- collision cross section (N2) ([M-H]-): 205.9 Å²

SMILES: CC(C)(COP(=O)(O)OP(=O)(O)OC[C@H]1O[C@@H](n2cnc3c(N)ncnc32)[C@H](O)[C@@H]1OP(=O)(O)O)[C@@H](O)C(=O)NCCC(=O)NCCS [COENZYME A]
- collision cross section (N2) ([M+H]+): 241.4 Å²
- collision cross section (N2) ([M+Na-2H]-): 246.2 Å²
- collision cross section (N2) ([M+Na]+): 255.5 Å²
- collision cross section (N2) ([M-H]-): 244.4 Å²

SMILES: C[C@]12CCC(=O)C=C1CC[C@@H]1[C@@H]2CC[C@@]2(C)[C@H]1CC[C@]2(O)C(=O)CO [CORTEXOLONE]
- collision cross section (N2) ([M+H]+): 187.7 Å²
- collision cross section (N2) ([M+Na]+): 211 Å²

SMILES: C[C@]12C[C@H](O)[C@H]3[C@@H](CCC4=CC(=O)CC[C@@]43C)[C@@H]1CC[C@@H]2C(=O)CO [CORTICOSTERONE]
- collision cross section (N2) ([M+H]+): 186.9 Å²
- collision cross section (N2) ([M+K]+): 208.4 Å²
- collision cross section (N2) ([M-H]-): 186.8 Å²

SMILES: C[C@]12CCC(=O)C=C1CC[C@@H]1[C@@H]2[C@@H](O)C[C@@]2(C)[C@H]1CC[C@]2(O)C(=O)CO [CORTISOL]
- collision cross section (N2) ([M+H]+): 188.6 Å²
- collision cross section (N2) ([M+K]+): 210.7 Å²
- collision cross section (N2) ([M+Na]+): 212.9 Å²
- collision cross section (N2) ([M-H]-): 191.9 Å²

SMILES: Nc1ncnc2c1ncn2[C@@H]1O[C@@H]2COP(=O)(O)O[C@H]2[C@H]1O [CYCLIC AMP]
- collision cross section (N2) ([M+H]+): 172.6 Å² and 176.8 Å²
- collision cross section (N2) ([M+Na]+): 181 Å² and 188.6 Å² and 188.8 Å²
- collision cross section (N2) ([M-H]-): 171.8 Å² and 172 Å²

SMILES: Nc1ccn([C@@H]2O[C@H](COP(=O)(O)OP(=O)(O)O)[C@@H](O)[C@H]2O)c(=O)n1 [CYTIDINE DIPHOSPHATE]
- collision cross section (N2) ([M+H]+): 175.6 Å²
- collision cross section (N2) ([M+Na-2H]-): 176.3 Å²
- collision cross section (N2) ([M+Na]+): 179.9 Å²
- collision cross section (N2) ([M-H]-): 174.2 Å²

SMILES: O=C1O[C@H]([C@@H](O)CO)C(=O)C1=O [DEHYDROASCORBATE]
- collision cross section (N2) ([M-H]-): 127.8 Å²

SMILES: Nc1ncnc2c1ncn2[C@H]1C[C@H](O)[C@@H](COP(=O)(O)OP(=O)(O)OP(=O)(O)O)O1 [DEOXYADENOSINE TRIPHOSPHATE]
- collision cross section (N2) ([M+H]+): 194.8 Å²
- collision cross section (N2) ([M+Na-2H]-): 185.9 Å²
- collision cross section (N2) ([M+Na]+): 202 Å²
- collision cross section (N2) ([M-H]-): 186.5 Å²

SMILES: C[N+](C)(C)CCCC(=O)[O-] [DEOXYCARNITINE]
- collision cross section (N2) ([M+H]+): 129.7 Å²

SMILES: CC(=O)OCC(=O)[C@H]1CC[C@H]2[C@@H]3CCC4=CC(=O)CC[C@]4(C)[C@H]3CC[C@]12C [DEOXYCORTICOSTERONE ACETATE]
- collision cross section (N2) ([M+H]+): 196.9 Å²

SMILES: Nc1nc(=O)c2ncn([C@H]3C[C@H](O)[C@@H](CO)O3)c2[nH]1 [DEOXYGUANOSINE]
- collision cross section (N2) ([M+K]+): 171.4 Å²
- collision cross section (N2) ([M+Na]+): 171.7 Å²
- collision cross section (N2) ([M-H]-): 159.1 Å²

SMILES: O=c1ccn([C@H]2C[C@H](O)[C@@H](COP(=O)(O)OP(=O)(O)OP(=O)(O)O)O2)c(=O)[nH]1 [DEOXYURIDINE TRIPHOSPHATE]
- collision cross section (N2) ([M+Na-2H]-): 188.9 Å²
- collision cross section (N2) ([M+Na]+): 185.3 Å²
- collision cross section (N2) ([M-H]-): 178.6 Å²

SMILES: O=c1ccn([C@H]2C[C@H](O)[C@@H](CO)O2)c(=O)[nH]1 [DEOXYURIDINE]
- collision cross section (N2) ([M+Na]+): 156.4 Å²
- collision cross section (N2) ([M-H]-): 148.9 Å²

SMILES: C[C@@H]1NC(=O)N[C@@H]1CCCCCC(=O)O [DETHIOBIOTIN]
- collision cross section (N2) ([M+H]+): 144 Å²
- collision cross section (N2) ([M+K]+): 155.8 Å²
- collision cross section (N2) ([M+Na-2H]-): 148.8 Å²
- collision cross section (N2) ([M+Na]+): 155 Å²
- collision cross section (N2) ([M-H]-): 152.5 Å²

SMILES: Nc1nc(=O)c2ncn([C@H]3C[C@H](O)[C@@H](COP(=O)(O)OP(=O)(O)O)O3)c2[nH]1 [DGDP]
- collision cross section (N2) ([M+H]+): 188.5 Å²
- collision cross section (N2) ([M+Na-2H]-): 177.5 Å² and 185.6 Å²
- collision cross section (N2) ([M+Na]+): 185.2 Å²
- collision cross section (N2) ([M-H]-): 180.8 Å²

SMILES: O=C1CC(C(=O)O)NC(=O)N1 (centres undefined) [DIHYDROOROTATE]
- collision cross section (N2) ([M-H]-): 125.2 Å²

SMILES: Cc1cn([C@H]2C[C@H](O)[C@@H](COP(=O)(O)OP(=O)(O)OC3O[C@H](CO)[C@@H](O)[C@H](O)[C@H]3O)O2)c(=O)[nH]c1=O (stereo partly drawn) [DTDP-D-GLUCOSE]
- collision cross section (N2) ([M+Na-2H]-): 218.2 Å²
- collision cross section (N2) ([M+Na]+): 209.9 Å²
- collision cross section (N2) ([M-H]-): 209.5 Å²

SMILES: CNC[C@H](O)c1ccc(O)c(O)c1 [EPINEPHRINE]
- collision cross section (N2) ([M-H]-): 140.1 Å²

SMILES: NCCOP(=O)(O)O [ETHANOLAMINE PHOSPHATE]
- collision cross section (N2) ([M-H]-): 123 Å²

SMILES: O=C(CO)[C@@H](O)[C@H](O)[C@H](O)COP(=O)(O)O [FRUCTOSE 6-PHOSPHATE]
- collision cross section (N2) ([M+Na-2H]-): 154.9 Å²
- collision cross section (N2) ([M+Na]+): 154.4 Å²
- collision cross section (N2) ([M-H]-): 144.1 Å²
